From publication PMC9358002, “Synthesis and Discovery of Ligustrazine–Heterocycle Derivatives as Antitumor Agents” (Frontiers in Chemistry, 2022)
Read-outs that look alike come from different tables or passages of the source.

Key:
Type in all cases: cell-based
[1] = test system: human breast cancer MCF-7; assay: MTT antiproliferative assay, MCF-7; conditions: 0–50 μM, read-out: Antiproliferative activity IC50 ± SEM, MCF-7
Description: (§1) The in vitro antiproliferative activity of 33 TMPH compounds was evaluated by MTT assay ([Medica et al., 2022]). Five types of TNBC-related cell lines (human breast cancer MCF-7 and MDA-MB-231, mouse breast cancer 4T1, mouse fibroblast L929, and human umbilical vein endothelial HUVEC cell lines) were used. The cell lines were obtained from the Shanghai Institute of Biochemistry and Cell Biology of the Chinese Academy of Sciences (Shanghai, China). The cell lines were cultured in DMEM supplemented with 1% penicillin–streptomycin solution (100×) and 10% FBS at 37°C under a humid atmosphere containing 5% CO2. After cell passage, cryopreservation, and resuscitation, the growth-inhibitory effects against the five cell lines were determined by MTT assay. The 33 TMPH compounds and the reference control drug cisplatin were dissolved in 0.1% DMSO solution. The cell lines were maintained in 96-well plates and subjected to each test compound (0–50 μM) at 37°C for 48 h. After treatment with 1 mg/ml MTT solution for 4 h, the formazan crystals were dissolved in each well. A microplate reader (Varioskan Flash 3001, Thermo Scientific) was used to determine the cell viability at 490 nm, and each experiment was repeated four times. The collected data were expressed as the mean ± SEM. The inhibitory concentration of the 34 compounds at 50% (IC50) was calculated via concentration–inhibition relationship regression by SPSS software.

[2] = test system: human breast cancer MDA-MB-231; assay: MTT antiproliferative assay, MDA-MB-231; conditions: for IC50: MTT, 48 h, 0–50 μM, read-out: Antiproliferative activity IC50 ± SEM, MDA-MB-231; for SI, selectivity index: SI = IC50 (L929)/IC50 (MDA-MB-231)
Description: as §1

mouse breast cancer 4T1 = assay: MTT antiproliferative assay, 4T1; conditions: 48 h, 0–50 μM, read-out: Antiproliferative activity IC50 ± SEM, 4T1
Description: as §1

mouse fibroblast L929 = assay: MTT antiproliferative assay, L929; conditions: 0–50 μM, read-out: Antiproliferative activity IC50 ± SEM, L929
Description: as §1

[3] = test system: human umbilical vein endothelial HUVEC; assay: MTT antiproliferative assay, HUVEC; conditions: 48 h, 0–50 μM, read-out: Antiproliferative activity IC50 ± SEM, HUVEC
Description: as §1

[4] = test system: MCF-7, MDA-MB-231, 4T1, L929 and HUVEC cell lines; assay: MTT antiproliferative assay, statements over all five tested cell lines; conditions: range over all five tested cell lines, read-out: IC50 values ranging over the tested cell lines
Description: as §1

Row | SMILES | IC50 ([1]; Homo sapiens, MCF7, 48 h) | IC50 ([2]; Homo sapiens, MDA-MB-231) | SI, selectivity index [2] | IC50 (mouse breast cancer 4T1; Mus musculus) | IC50 (mouse fibroblast L929; Mus musculus, L929, 48 h) | IC50 ([3]; Homo sapiens, HUVEC) | IC50 [4] | IC50 ([1]; 48 h) | IC50 [2] | IC50 (mouse breast cancer 4T1) | IC50 (mouse fibroblast L929; 48 h) | IC50 [3]
1 | Cc1nc(C)c(C(=O)NCCCCCCCCNC(=O)C=Cc2ccccc2)nc1C [8–1] | 10.99 ± 0.06 µM | 2.52 ± 0.08 µM | 6.58 | > 20 µM | 16.58 ± 0.12 µM | > 20 µM |  |  |  |  |  | 
2 | Cc1nc(C)c(C(=O)NCCCCCCCCNC(=O)c2cc3ccccc3o2)nc1C [8–2] | 6.62 ± 0.15 µM | 6.1 ± 0.16 µM | >3.28 | 19.86 ± 0.16 µM | > 20 µM | 4.27 ± 0.07 µM |  |  |  |  |  | 
3 | Cc1nc(C)c(C(=O)NCCCCCCCCNC(=O)c2cc3ccccc3s2)nc1C [8–3] | 4.15 ± 0.02 µM | 3.39 ± 0.12 µM | 1.22 | 19.5 ± 0.45 µM | 4.12 ± 0.32 µM | 9.78 ± 0.05 µM | 1.61 to 19.5 µM |  |  |  |  | 
4 | Cc1nc(C)c(C(=O)NCCCCCCCCNC(=O)c2cc3ccccc3[nH]2)nc1C [8–4] | 6.21 ± 0.14 µM | 5.77 ± 0.09 µM | 1.85 | > 20 µM | 10.7 ± 0.43 µM | > 20 µM |  |  |  |  |  | 
5 | Cc1nc(C)c(C(=O)NCCCCCCCCNC(=O)c2cnc3ccccc3c2)nc1C [8–5] | 4.96 ± 0.25 µM | 3.44 ± 0.16 µM | 1.01 | 2.07 ± 0.04 µM | 3.49 ± 0.28 µM | > 20 µM |  |  |  |  |  | 
6 | Cc1nc(C)c(C(=O)NCCCCCCCCNC(=O)c2ccc3ncccc3c2)nc1C [8–6] | > 20 µM | 1.02 ± 0.15 µM | >19.61 | 1.94 ± 0.03 µM | > 20 µM | > 20 µM |  |  |  |  |  | 
7 | Cc1nc(C)c(C(=O)NCCCCCCCCNC(=O)c2ccc3cc[nH]c3c2)nc1C [8–9] | > 20 µM | 8.45 ± 0.14 µM | >2.37 | 3.74 ± 0.19 µM | > 20 µM | > 20 µM |  |  |  |  |  | 
8 | Cc1nc(C)c(C(=O)NCCCCCCCCNC(=O)C=Cc2ccc(Cl)cc2)nc1C [8–10] | 2.84 ± 0.21 µM | 6.67 ± 0.16 µM | 0.82 | 2.48 ± 0.24 µM | 5.48 ± 0.06 µM | 4.54 ± 0.01 µM | 1.61 to 19.5 µM |  |  |  |  | 
9 | COc1ccc(C=CC(=O)NCCCCCCCCNC(=O)c2nc(C)c(C)nc2C)cc1OC [8–11] | > 20 µM | 5.05 ± 0.02 µM | >3.96 | 12 ± 0.46 µM | > 20 µM | 10.35 ± 0.03 µM |  |  |  |  |  | 
10 | COc1cc(C=CC(=O)NCCCCCCCCNC(=O)c2nc(C)c(C)nc2C)cc(OC)c1OC [8–12] | 5.38 ± 0.13 µM | 11.2 ± 0.12 µM | >1.78 | 10.2 ± 0.32 µM | > 20 µM | > 20 µM |  |  |  |  |  | 
11 | Cc1nc(C)c(C(=O)NCCCCCCCCNC(=O)c2ccc3ccccc3c2)nc1C [8–13] | > 20 µM | 2.44 ± 0.09 µM | 6.42 | 13.7 ± 0.24 µM | 15.7 ± 0.36 µM | 14.4 ± 0.03 µM |  |  |  |  |  | 
12 | Cc1nc(C)c(C(=O)NCCCCCCCCCCNC(=O)C=Cc2ccccc2)nc1C [10–1] | 2.61 ± 0.19 µM | 1.14 ± 0.08 µM | 3.82 | 2.86 ± 0.18 µM | 4.36 ± 0.37 µM | > 20 µM |  |  |  |  |  | 
13 | Cc1nc(C)c(C(=O)NCCCCCCCCCCNC(=O)c2cc3ccccc3o2)nc1C [10–2] | 4.19 ± 0.15 µM | 8.41 ± 0.18 µM | 1.39 | > 20 µM | 11.7 ± 0.81 µM | 16.6 ± 0.68 µM |  |  |  |  |  | 
14 | Cc1nc(C)c(C(=O)NCCCCCCCCCCNC(=O)c2cc3ccccc3s2)nc1C [10–3] | 18.5 ± 1.34 µM | 4.16 ± 0.25 µM | 1.75 | 17.6 ± 1.16 µM | 7.26 ± 0.16 µM | > 20 µM |  |  |  |  |  | 
15 | Cc1nc(C)c(C(=O)NCCCCCCCCCCNC(=O)c2cc3ccccc3[nH]2)nc1C [10–4] | > 20 µM | 13 ± 0.27 µM | >1.54 | > 20 µM | > 20 µM | > 20 µM |  |  |  |  |  | 
16 | Cc1nc(C)c(C(=O)NCCCCCCCCCCNC(=O)c2cnc3ccccc3c2)nc1C [10–5] | 8.72 ± 0.49 µM | 5.76 ± 0.13 µM | 0.90 | > 20 µM | 5.18 ± 0.27 µM | > 20 µM |  |  |  |  |  | 
17 | Cc1nc(C)c(C(=O)NCCCCCCCCCCNC(=O)c2ccc3ncccc3c2)nc1C [10–6] | 6.49 ± 0.36 µM | 7.76 ± 0.14 µM | 1.15 | 12 ± 0.54 µM | 8.91 ± 0.12 µM | 10.2 ± 0.86 µM | 1.61 to 19.5 µM |  |  |  |  | 
18 | Cc1nc(C)c(C(=O)NCCCCCCCCCCNC(=O)c2ccc3cc[nH]c3c2)nc1C [10–9] | 3.37 ± 0.19 µM | 6.01 ± 0.11 µM | 1.23 | 3.12 ± 0.14 µM | 7.37 ± 0.57 µM | 9.63 ± 0.53 µM | 1.61 to 19.5 µM |  |  |  |  | 
19 | Cc1nc(C)c(C(=O)NCCCCCCCCCCNC(=O)C=Cc2ccc(Cl)cc2)nc1C [10–10] | 2.93 ± 0.05 µM | 2.83 ± 0.09 µM | 3.58 | > 20 µM | 10.1 ± 0.52 µM | 11.2 ± 0.38 µM |  |  |  |  |  | 
20 | COc1ccc(C=CC(=O)NCCCCCCCCCCNC(=O)c2nc(C)c(C)nc2C)cc1OC [10–11] | 3.23 ± 0.03 µM | 12.9 ± 1.41 µM | >1.55 | > 20 µM | > 20 µM | > 20 µM |  |  |  |  |  | 
21 | COc1cc(C=CC(=O)NCCCCCCCCCCNC(=O)c2nc(C)c(C)nc2C)cc(OC)c1OC [10–12] | 2.86 ± 0.08 µM | 3.41 ± 0.12 µM | >5.87 | > 20 µM | > 20 µM | > 20 µM |  |  |  |  |  | 
22 | Cc1nc(C)c(C(=O)NCCCCCCCCCCNC(=O)c2ccc3ccccc3c2)nc1C [10–13] | 3.09 ± 0.13 µM | 4.6 ± 0.29 µM | 2.75 | 9.88 ± 0.22 µM | 12.64 ± 0.12 µM | 10.5 ± 1.24 µM | 1.61 to 19.5 µM |  |  |  |  | 
23 | Cc1nc(C)c(C(=O)NCCCCCCCCCCCCNC(=O)C=Cc2ccccc2)nc1C [12–1] | 1.95 ± 0.06 µM | 2.78 ± 0.37 µM | 1.71 | 2.66 ± 0.05 µM | 4.75 ± 0.26 µM | 13.2 ± 1.12 µM | 1.61 to 19.5 µM |  |  |  |  | 
24 | Cc1nc(C)c(C(=O)NCCCCCCCCCCCCNC(=O)c2cc3ccccc3o2)nc1C [12–2] | 2.71 ± 0.07 µM | 3.38 ± 0.12 µM | 1.12 | 3.97 ± 0.01 µM | 3.78 ± 0.14 µM | 11 ± 0.68 µM | 1.61 to 19.5 µM |  |  |  |  | 
25 | Cc1nc(C)c(C(=O)NCCCCCCCCCCCCNC(=O)c2cc3ccccc3s2)nc1C [12–3] | 3.26 ± 0.16 µM | 2.12 ± 0.06 µM | 3.61 | 5.13 ± 0.28 µM | 7.65 ± 0.06 µM | 7.86 ± 0.01 µM | 1.61 to 19.5 µM |  |  |  |  | 
26 | Cc1nc(C)c(C(=O)NCCCCCCCCCCCCNC(=O)c2cc3ccccc3[nH]2)nc1C [12–4] | 3.23 ± 0.18 µM | 3.52 ± 0.12 µM | >5.68 | 6.62 ± 0.14 µM | > 20 µM | > 20 µM |  |  |  |  |  | 
27 | COc1ccc(C=CC(=O)NCCCCCCCCCCCCNC(=O)c2nc(C)c(C)nc2C)cc1OC [12–11] | 1.76 ± 0.02 µM | 2.42 ± 0.18 µM | >8.26 | 2.32 ± 0.14 µM | > 20 µM | > 20 µM |  |  |  |  |  | 
28 | N.N.[Cl][Pt][Cl] [DDP, cisplatin, reference compound] |  |  | 2.64 |  |  |  |  | 6.25 ± 0.34 µM | 3.18 ± 0.06 µM | 5.71 ± 0.16 µM | 8.38 ± 0.23 µM | 7.46 ± 0.45 µM
29 | Cc1nc(C)c(C)nc1C [TMP, Ligustrazine] | > 20 µM | > 20 µM |  | > 20 µM | > 20 µM | > 20 µM |  |  |  |  |  | 
